Laboratory results from patent US20230017786A1, “DEXTR[…] A DISEASE-MODIFYING TREATMENT FOR NEUROPSYCHIATRIC DISORDERS AND DISEASES” (priority 2020, published 2023).
Where “and” joins values, the source holds several entries; their conditions need not be identical. Identical values can stand only once. Counter-ions that a name gives are not always drawn.

Key:
[1] = biological target: T1, human GluN1-GluN2C NMDA receptor (Homo sapiens, UniProt Q05586+Q14957); assay: Manual patch clamp on-/off-rate assay, hGluN1/hGluN2C-CHO cells; details: for % Current (mean ± SEM): 10/10 μM L-glutamate/glycine induced current, hGluN1/hGluN2C-CHO; for Tau-off: continuous 10/10 μM L-glutamate/glycine; for I2 (% current): current after 50 seconds removal of test item; for Tau-on: 10/10 μM L-glutamate/glycine; for % block of 10/10 μM L-glutamate/glycine induced current: −70 mV, no Mg2+
Description: Manual patch clamp recordings occurred at −70 mV. […] Tau-on and tau-off were estimated by curve fitting to first order exponential equations.
Test items were evaluated using a manual patch clamp whole-cell recording methodology, using HEKA Elektronik Patchmaster system, coupled to BioLogic RSC-160 perfusion device (BioLogic, Seyssinet-Pariset, France).
hGluN1/hGluN2C-CHO cells grown on poly-D-lysine coated glass coverslips were studied by manual patch clamp whole cell recording. Extracellular and intracellular solutions for patch clamp recording had following composition:
(§6) Recordings occurred at −70 mV fixed voltage equal to holding potential.
Test item on-/off-rates were measured by curve fitting the development of their induced current block, or relief from it.
At least n=10 independent cells were analysed. […] Time constant of onset (tau-on, seconds) and offset (tau-off, seconds) of test item inhibition of glutamate induced current were calculated using first order exponential equations as shown below:
I(t)=I1+(I2−I1)×(1−e^−t/τoff)

[2] = system: diheteromeric human recombinant NMDAR containing GluN1 plus GluN2A, GluN2B, GluN2C or GluN2D; assay: FLIPR calcium assay, statements for all four NMDAR subtypes together; format: cell-based; details: 6 test item concentrations
Source text: An operational equation for allosteric modulators (Leach K, Sexton P M and Christopoulos A, Allosteric GPCR modulators: taking advantage of permissive receptor pharmacology, Trends Pharmacol. Sci. 28: 382-389, 2007; Kenakin T P, Overview of receptor interaction of agonists and antagonists, Curr. Protoc. Pharmacol. Chapter 4: Unit 4.1, 2008, Kenakin T P, Biased signalling and allosteric machines: new vistas and challenges for drug discovery, Br. J. Pharmacol. 165: 1659-1669, 2012) was created in Prism 8 (GraphPad) software to estimate KB and a parameters for every test item, with the assumption that, as a pore blocker, every test item would be able to produce a compete blockade of agonist response, at sufficiently high concentration: […]

[3] = system: NMDA receptors of cultured rat cortical neurons; details: Mealing et al., 1999; cited from earlier work
[4] = biological target: T1, human GluN1-GluN2C NMDA receptor; assay: Manual patch clamp trapping assay, hGluN1/hGluN2C-CHO cells; details: test item 1 μM, hydrochloride
Source text: Manual patch clamp recordings occurred at −70 mV.
hGluN1/hGluN2C-CHO cells grown on poly-D-lysine coated glass coverslips were studied by manual patch clamp whole cell recording.
as §6

[5] = biological target: T2, human NMDA receptor GluN1-GluN2C (Homo sapiens, UniProt Q05586+Q14957); assay: FLIPR calcium assay, test item effect on L-glutamate CRC, GluN1-GluN2C-CHO; format: cell-based
T2 construct: expressed in transfected cells; host or cells: CHO
Description: (§1) FLIPR determination of intracellular calcium level was used as a read-out for NMDAR activation.
(§2) 400× compound plate was stored at −20° C. until FLIPR experimental day.
(§3) 4× compound plate was generated from 400× compound plate by addition of up to 30 μl/well of compound buffer on FLIPR experimental day.
(§4) A FLIPR system was used to monitor intracellular calcium level in NMDAR cell lines, pre-loaded for 1 hour with Fluo-4, and then washed with assay buffer.
(§5) Y=Bottom+(Top−Bottom)/(1+10^((LogEC50−Log[A])*HillSlope))

[6] = biological target: T3, human NMDA receptor GluN1-GluN2B (Homo sapiens, UniProt Q05586+Q13224); assay: cell-based; format: cell-based
T3 construct: expressed in transfected cells; host or cells: CHO
Description: as §1, §2, §3, §4, §5

[7] = biological target: T4, human NMDA receptor GluN1-GluN2D (Homo sapiens, UniProt O15399+Q05586); assay: FLIPR calcium assay, test item effect on L-glutamate CRC, GluN1-GluN2D-CHO; format: cell-based
T4 construct: expressed in transfected cells; host or cells: CHO
Description: as §1, §2, §3, §4, §5

[8] = biological target: T5, human NMDA receptor GluN1-GluN2A (Homo sapiens, UniProt Q05586+Q12879); assay: FLIPR calcium assay, test item effect on L-glutamate CRC, GluN1-GluN2A-CHO; format: cell-based
T5 construct: expressed in transfected cells; host or cells: CHO
Description: as §1, §2, §3, §4, §5

[9] = 10 μM test item, offset fitting
[10] = highest affinity for a NMDAR subtype = 100%
[11] = operational analysis for allosteric modulators

T3 sequence (Q13224 27-1484, other chains not shown): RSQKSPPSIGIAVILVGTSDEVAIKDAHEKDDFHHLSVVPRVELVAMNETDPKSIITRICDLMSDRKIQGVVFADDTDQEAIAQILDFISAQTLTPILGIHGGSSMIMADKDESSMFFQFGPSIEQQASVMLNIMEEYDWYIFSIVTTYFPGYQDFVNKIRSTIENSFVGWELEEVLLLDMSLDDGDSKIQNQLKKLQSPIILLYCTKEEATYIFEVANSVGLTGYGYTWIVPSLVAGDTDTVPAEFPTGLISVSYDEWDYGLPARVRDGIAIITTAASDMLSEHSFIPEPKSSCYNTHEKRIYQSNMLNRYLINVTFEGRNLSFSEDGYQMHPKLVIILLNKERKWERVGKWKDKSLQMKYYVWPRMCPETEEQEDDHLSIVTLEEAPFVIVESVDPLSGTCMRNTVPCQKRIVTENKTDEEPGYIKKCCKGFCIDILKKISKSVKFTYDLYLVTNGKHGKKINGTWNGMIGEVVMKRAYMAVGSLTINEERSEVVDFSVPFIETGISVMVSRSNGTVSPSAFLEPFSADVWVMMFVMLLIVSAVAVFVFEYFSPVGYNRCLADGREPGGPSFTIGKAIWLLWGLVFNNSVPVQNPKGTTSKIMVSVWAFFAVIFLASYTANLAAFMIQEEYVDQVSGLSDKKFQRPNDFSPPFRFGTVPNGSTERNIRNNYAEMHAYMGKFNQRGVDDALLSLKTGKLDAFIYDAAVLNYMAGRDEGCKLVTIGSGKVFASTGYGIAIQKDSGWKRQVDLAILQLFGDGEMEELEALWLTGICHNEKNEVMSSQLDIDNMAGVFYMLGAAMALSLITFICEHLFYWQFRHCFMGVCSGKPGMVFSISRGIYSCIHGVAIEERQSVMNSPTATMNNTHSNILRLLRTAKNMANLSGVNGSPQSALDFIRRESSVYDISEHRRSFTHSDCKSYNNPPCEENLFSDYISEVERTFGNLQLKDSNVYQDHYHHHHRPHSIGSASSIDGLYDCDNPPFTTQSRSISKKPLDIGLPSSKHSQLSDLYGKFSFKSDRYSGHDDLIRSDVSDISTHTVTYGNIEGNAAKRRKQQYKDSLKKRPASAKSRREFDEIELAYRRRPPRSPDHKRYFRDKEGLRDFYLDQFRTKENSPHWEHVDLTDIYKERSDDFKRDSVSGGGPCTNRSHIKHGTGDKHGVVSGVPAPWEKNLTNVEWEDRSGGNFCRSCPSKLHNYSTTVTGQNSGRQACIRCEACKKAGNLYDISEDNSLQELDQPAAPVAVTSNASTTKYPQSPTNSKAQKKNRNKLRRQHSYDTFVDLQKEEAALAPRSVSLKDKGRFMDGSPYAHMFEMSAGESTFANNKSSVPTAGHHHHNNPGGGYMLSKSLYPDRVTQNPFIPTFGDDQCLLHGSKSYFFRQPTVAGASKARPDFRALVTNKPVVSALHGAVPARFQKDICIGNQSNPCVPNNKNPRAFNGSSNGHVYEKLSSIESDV
T1 sequence (Q14957 20-1233, other chains not shown): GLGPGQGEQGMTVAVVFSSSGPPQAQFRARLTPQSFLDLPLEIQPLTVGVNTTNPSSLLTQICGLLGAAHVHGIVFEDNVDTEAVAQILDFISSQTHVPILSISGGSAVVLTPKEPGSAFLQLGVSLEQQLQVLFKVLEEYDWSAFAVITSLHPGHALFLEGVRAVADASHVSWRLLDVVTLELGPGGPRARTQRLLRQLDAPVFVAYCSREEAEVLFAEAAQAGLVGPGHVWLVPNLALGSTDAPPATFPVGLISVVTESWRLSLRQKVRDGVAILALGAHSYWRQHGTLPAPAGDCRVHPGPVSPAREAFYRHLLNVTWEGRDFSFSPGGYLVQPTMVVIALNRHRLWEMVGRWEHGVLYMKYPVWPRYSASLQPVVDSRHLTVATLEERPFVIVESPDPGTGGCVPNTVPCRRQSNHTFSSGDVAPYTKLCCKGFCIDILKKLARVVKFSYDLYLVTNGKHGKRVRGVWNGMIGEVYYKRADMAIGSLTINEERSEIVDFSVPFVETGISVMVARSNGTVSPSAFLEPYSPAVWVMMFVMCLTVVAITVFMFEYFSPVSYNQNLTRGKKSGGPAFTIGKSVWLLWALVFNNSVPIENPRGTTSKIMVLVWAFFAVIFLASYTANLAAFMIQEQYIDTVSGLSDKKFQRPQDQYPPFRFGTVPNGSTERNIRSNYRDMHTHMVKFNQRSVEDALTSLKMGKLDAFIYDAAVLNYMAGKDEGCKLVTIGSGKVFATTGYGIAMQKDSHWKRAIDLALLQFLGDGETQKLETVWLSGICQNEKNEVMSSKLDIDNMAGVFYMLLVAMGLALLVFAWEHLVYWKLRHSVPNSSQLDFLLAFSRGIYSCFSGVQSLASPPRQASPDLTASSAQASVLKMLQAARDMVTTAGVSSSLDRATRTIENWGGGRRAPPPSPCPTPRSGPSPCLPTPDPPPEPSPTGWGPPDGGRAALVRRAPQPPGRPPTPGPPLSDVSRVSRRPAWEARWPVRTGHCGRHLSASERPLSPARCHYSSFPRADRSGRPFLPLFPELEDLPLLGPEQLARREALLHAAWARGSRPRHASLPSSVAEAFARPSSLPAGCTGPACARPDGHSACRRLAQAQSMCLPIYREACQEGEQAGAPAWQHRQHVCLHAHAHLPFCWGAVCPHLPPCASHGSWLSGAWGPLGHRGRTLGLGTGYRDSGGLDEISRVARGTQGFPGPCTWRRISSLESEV
T2 sequence (Q14957 20-1233, other chains not shown): as above
T4 sequence (O15399 28-1336, other chains not shown): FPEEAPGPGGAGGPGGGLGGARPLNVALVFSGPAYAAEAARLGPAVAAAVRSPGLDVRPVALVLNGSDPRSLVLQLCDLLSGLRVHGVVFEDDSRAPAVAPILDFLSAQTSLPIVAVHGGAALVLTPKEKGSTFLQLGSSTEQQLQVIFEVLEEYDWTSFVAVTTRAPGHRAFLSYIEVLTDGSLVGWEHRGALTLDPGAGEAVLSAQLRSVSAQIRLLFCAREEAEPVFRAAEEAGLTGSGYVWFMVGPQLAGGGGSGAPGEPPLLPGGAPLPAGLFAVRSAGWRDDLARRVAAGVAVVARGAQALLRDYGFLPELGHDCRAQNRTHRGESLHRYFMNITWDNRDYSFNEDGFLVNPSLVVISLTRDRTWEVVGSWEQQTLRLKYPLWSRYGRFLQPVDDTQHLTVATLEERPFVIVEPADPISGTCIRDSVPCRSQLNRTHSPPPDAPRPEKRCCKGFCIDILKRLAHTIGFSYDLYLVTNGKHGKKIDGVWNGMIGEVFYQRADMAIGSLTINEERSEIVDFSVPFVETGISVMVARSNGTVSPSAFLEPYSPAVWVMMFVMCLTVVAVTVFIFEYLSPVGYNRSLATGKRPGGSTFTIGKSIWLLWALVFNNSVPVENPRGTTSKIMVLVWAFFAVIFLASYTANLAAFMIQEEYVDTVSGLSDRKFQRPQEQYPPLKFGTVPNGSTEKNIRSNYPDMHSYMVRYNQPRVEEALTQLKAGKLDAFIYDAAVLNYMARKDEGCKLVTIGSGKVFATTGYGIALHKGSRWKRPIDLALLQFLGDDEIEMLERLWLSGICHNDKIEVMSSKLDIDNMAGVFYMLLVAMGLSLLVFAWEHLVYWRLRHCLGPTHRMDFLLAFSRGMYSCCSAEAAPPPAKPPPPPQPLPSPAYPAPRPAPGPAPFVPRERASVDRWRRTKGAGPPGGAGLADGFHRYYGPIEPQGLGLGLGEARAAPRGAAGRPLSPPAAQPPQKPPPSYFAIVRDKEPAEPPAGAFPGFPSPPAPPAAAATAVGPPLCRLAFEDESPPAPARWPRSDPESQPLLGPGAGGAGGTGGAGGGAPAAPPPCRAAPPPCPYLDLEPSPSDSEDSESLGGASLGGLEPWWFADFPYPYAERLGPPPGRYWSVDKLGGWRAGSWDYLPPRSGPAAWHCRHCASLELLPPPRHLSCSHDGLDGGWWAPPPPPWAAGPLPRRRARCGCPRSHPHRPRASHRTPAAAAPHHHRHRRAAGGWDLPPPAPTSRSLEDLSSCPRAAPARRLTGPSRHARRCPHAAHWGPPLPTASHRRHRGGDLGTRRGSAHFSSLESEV

In the case of `CNC1(c2ccccc2Cl)CCCCC1=O` (racemic) [(±)-Ketamine, (±)-ketamine hydrochloride], the “% Current (mean ± SEM)” value ([1]; 0.3 μM test item) is reported as 44.2 ± 3.0%, the “% Current (mean ± SEM)” value ([1]; 1 μM test item) is reported as 74.6 ± 2.2% and the “I1 (% current)” value ([1]; 1 μM test item, offset fitting) is reported as 28.5 % current. For the same compound, the Tau-off ([1]; 1 μM test item, offset fitting) was 151.0 s, the “I2 (% current)” value ([1]; 1 μM test item, offset fitting) was 95.5 % current and the Tau-on ([1]; 1 μM test item, onset fitting) was 47.1 s. The “I1 (% current)” value ([1]; 1 μM test item, onset fitting, current after 30 seconds application of test item) was 28.7 % current, the “% Current (mean ± SEM)” value ([1]; 3 μM test item) was 89.7 ± 0.6% and the “I1 (% current)” value [1, 9] was 4.9 % current. For the same compound, the Tau-off [1, 9] was 163.2 s, the “I2 (% current)” value [1, 9] was 102.9 % current and the Tau-on ([1]; 10 μM test item, onset fitting) was 9.9 s. The “I1 (% current)” value ([1]; 10 μM test item, onset fitting, current after 30 seconds application of test item) was 3.6 % current, the “% block of 10/10 μM L-glutamate/glycine induced current” value ([1]; test item 0.3 μM, hydrochloride) was 44% and 44.2%±3.0% and 44.2% and the “tau-off, mean of single trace fittings” value ([1]; test item 1 μM) was 151.7 ± 6.3 s. For the same compound, the tau-on ([1]; test item 1 μM) was 47.1 s, the “tau-on, average of single trace fittings” value ([1]; test item 1 μM) was 47.3 ± 1.4 s and the tau-off ([1]; test item 1 μM, hydrochloride) was 151 s. The tau-off ([1]; test item 1 μM, listed as (±)-ketamine, hydrochloride) was 151.0 s, the “% block of 10/10 μM L-glutamate/glycine induced current” value ([1]; test item 1 μM, hydrochloride) was 74.6%±2.2% and 75% and 74.6% and the “% block of 10/10 μM L-glutamate/glycine induced current” value ([1]; test item 3 μM, hydrochloride) was 90% and 89.7%±0.6% and 89.7%. For the same compound, the tau-off ([1]; test item 10 μM) was 163.2 s, the tau-on ([1]; test item 10 μM) was 9.9 s and the “% block of 10/10 μM L-glutamate/glycine induced current” value ([1]; test item 10 μM, hydrochloride) was 97.2%±0.3% and 97% and 97.2%. For the same compound, the “profile on L-glutamate CRC” value [2] was “insurmountable profile”, the trapping [3] was 86.0% and the “Block trapped (BT), trapping” value [4] was 86.7%. The “Block (B) of 10/10 μM L-glutamate/glycine-evoked currents” value ([4]; listed as (±)-ketamine) was 74.0%±1.2% and 74.0%, the “Block trapped (BT), trapping” value ([4]; listed as (±)-ketamine) was 86.7%±1.8% and 86.7% and the “Residual block (BR)” value ([4]; listed as (±)-ketamine) was 64.1%±1.3% and 64.1%. The Kb [5] was 0.46 µM, the “potency with respect to dextromethadone” value ([5]; from the FLIPR study (Example 1)) was ~10 fold and the “% affinity ratio” value [5, 10] was 100%. For the same compound, the “α, estimated cooperativity term” value [5, 11] was 0.13, the “L-glutamate CRC HillSlope” value ([5]; with test item 49 nM) was 1.5 and the “L-glutamate CRC LogEC50” value ([5]; with test item 49 nM) was −6.9. The “L-glutamate CRC HillSlope” value ([5]; with test item 195 nM) was 1.5, the “L-glutamate CRC LogEC50” value ([5]; with test item 195 nM) was −6.8 and the “L-glutamate CRC HillSlope” value ([5]; with test item 781 nM) was 1.3. The “L-glutamate CRC LogEC50” value ([5]; with test item 781 nM) was −6.6, the “L-glutamate CRC HillSlope” value ([5]; with test item 3.1 μM) was 1.2 and the “L-glutamate CRC LogEC50” value ([5]; with test item 3.1 μM) was −6.6. The “L-glutamate CRC HillSlope” value ([5]; with test item 12.5 μM) was 2.0, the “L-glutamate CRC LogEC50” value ([5]; with test item 12.5 μM) was −6.7 and the “L-glutamate CRC HillSlope” value ([5]; with test item 50 μM) was 2.5. For the same compound, the “L-glutamate CRC LogEC50” value ([5]; with test item 50 μM) was −6.4, the “% affinity ratio” value [6] was 42% and the Kb [6] was 1.1 µM. The “α, estimated cooperativity term” value [6] was 0.14, the “L-glutamate CRC HillSlope” value ([6]; hydrochloride) was 2.0 and 1.4 and 1.1 and 1.2 and the Kb [7] was 1.4 µM. For the same compound, the “% affinity ratio” value [7, 10] was 33%, the “α, estimated cooperativity term” value [7, 11] was 0.15 and the “L-glutamate CRC HillSlope” value ([7]; with test item 49 nM) was 1.6. For the same compound, the “L-glutamate CRC LogEC50” value ([7]; with test item 49 nM) was −7.4, the “L-glutamate CRC HillSlope” value ([7]; with test item 195 nM) was 1.5 and the “L-glutamate CRC LogEC50” value ([7]; with test item 195 nM) was −7.3. For the same compound, the “L-glutamate CRC HillSlope” value ([7]; with test item 781 nM) was 1.4, the “L-glutamate CRC LogEC50” value ([7]; with test item 781 nM) was −7.2 and the “L-glutamate CRC HillSlope” value ([7]; with test item 3.1 μM) was 1.8. The “L-glutamate CRC LogEC50” value ([7]; with test item 3.1 μM) was −7.1, the “L-glutamate CRC HillSlope” value ([7]; with test item 12.5 μM) was 1.6 and the “L-glutamate CRC LogEC50” value ([7]; with test item 12.5 μM) was −6.9. The “L-glutamate CRC HillSlope” value ([7]; with test item 50 μM) was 2.0, the “L-glutamate CRC LogEC50” value ([7]; with test item 50 μM) was −6.7 and the Kb [8] was 4.3 µM. For the same compound, the “% affinity ratio” value [8, 10] was 11%, the “α, estimated cooperativity term” value [8, 11] was 0.17 and the “L-glutamate CRC HillSlope” value ([8]; with test item 49 nM) was 1.2. For the same compound, the “L-glutamate CRC LogEC50” value ([8]; with test item 49 nM) was −6.5, the “L-glutamate CRC HillSlope” value ([8]; with test item 195 nM) was 1.2 and the “L-glutamate CRC LogEC50” value ([8]; with test item 195 nM) was −6.5. The “L-glutamate CRC HillSlope” value ([8]; with test item 781 nM) was 1.0, the “L-glutamate CRC LogEC50” value ([8]; with test item 781 nM) was −6.4 and the “L-glutamate CRC HillSlope” value ([8]; with test item 3.1 μM) was 1.1. For the same compound, the “L-glutamate CRC LogEC50” value ([8]; with test item 3.1 μM) was −6.4, the “L-glutamate CRC HillSlope” value ([8]; with test item 12.5 μM) was 1.3 and the “L-glutamate CRC LogEC50” value ([8]; with test item 12.5 μM) was −6.4. For the same compound, the “L-glutamate CRC HillSlope” value ([8]; with test item 50 μM) was 1.9 and the “L-glutamate CRC LogEC50” value ([8]; with test item 50 μM) was −6.2.
